Measured values from ChEMBL document CHEMBL4402575.

Biological target: Transthyretin (Homo sapiens) (UniProt P02766)
Test: Stabilization of wild type human transthyretin expressed in Escherichia coli BL21(DE3) Star assessed as fibril formation at 50 uM pre-incubated with transthyretin before amyloid beta (1 to 42) addition by ThT fluorescence assay

Row | Compound | Activity [%]
1 | O=C(O)c1cc(-c2ccc(F)cc2F)ccc1O | 26
2 | O=C(O)c1ccc2nc(-c3cc(Cl)cc(Cl)c3)oc2c1 | 24
